In patent publication US10221163B2 (priority 2015, dated 2019):
Read-outs that look alike come from different tables or passages of the source.

Experiments:
[1] = tested on: Klebsiella pneumoniae expressing VIM-1 (IHMA599644); assay type: cell-based; settings: with imipenem 1 μg/ml; 95% inhibition of bacterial growth
In short: (§1)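 Clinical strains grown overnight on blood agar at 35°C, colonies suspended in saline, diluted 1:100 into 1.1×CAMHB. Test compound titrated with imipenem at 1 μg/ml; incubated 22–24 h at 35°C, growth read by absorbance.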

[2] = tested on: Serratia marcescens expressing IMP-1 (CL5741); assay type: cell-based; settings: with imipenem 1 μg/ml; 95% inhibition of bacterial growth
In short: as §1

[3] = tested on: Escherichia coli expressing NDM-1 (CLB30005, CLB30016); assay type: cell-based; settings: with imipenem 1 μg/ml; 95% inhibition of bacterial growth
In short: as §1

[4] = molecular target: VIM-1 (Pseudomonas aeruginosa (strain ATCC 15692 / DSM 22644 / CIP 104116 / JCM 14847 / LMG 12228 / 1C / PRS 101 / PAO1), UniProt A0A0F7KYQ8); test: biochemical; settings: CCF2-FA substrate, 30 pM enzyme, 2 hours at 25° C.
In short: (§2)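 Fluorescence assay, CCF2-FA substrate (cephalosporin core linking 7-hydroxycoumarin to fluorescein); inhibitor + MBL + substrate, 2 h, 25° C. IC50 by 4-parameter fit, semi-log plot.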

[5] = molecular target: IMP-1 (Serratia marcescens, UniProt P52699); test: biochemical; assay type: biochemical; settings: fluorescence assay, CCF2-FA substrate, 2 pM enzyme, 2 hours at 25° C.; read-out: IMP-1 IC50
Sequence of IMP-1 (P52699 whole entry, looked up, species assumed): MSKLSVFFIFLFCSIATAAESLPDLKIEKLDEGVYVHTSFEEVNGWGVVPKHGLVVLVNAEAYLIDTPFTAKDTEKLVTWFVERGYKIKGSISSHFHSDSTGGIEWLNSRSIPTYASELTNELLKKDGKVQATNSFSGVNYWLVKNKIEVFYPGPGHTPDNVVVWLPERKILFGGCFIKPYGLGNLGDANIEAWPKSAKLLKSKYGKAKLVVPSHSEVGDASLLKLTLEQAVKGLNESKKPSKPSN
In short: as §2

[6] = molecular target: NDM-1 (Klebsiella pneumoniae, UniProt C7C422); test: biochemical; assay type: biochemical; settings: fluorescence assay, CCF2-FA substrate, 1 pM enzyme, 2 hours at 25° C.; read-out: NDM-1 IC50
Sequence of NDM-1 (C7C422 whole entry, looked up, species assumed): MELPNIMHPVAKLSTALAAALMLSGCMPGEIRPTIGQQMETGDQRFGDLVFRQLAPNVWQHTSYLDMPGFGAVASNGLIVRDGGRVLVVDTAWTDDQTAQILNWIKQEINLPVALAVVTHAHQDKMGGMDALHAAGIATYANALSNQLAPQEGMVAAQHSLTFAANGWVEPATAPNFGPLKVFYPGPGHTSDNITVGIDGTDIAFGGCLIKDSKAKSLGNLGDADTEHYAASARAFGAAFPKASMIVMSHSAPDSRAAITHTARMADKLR
In short: as §2

[7] = tested on: Pseudomonas aeruginosa efflux+ (MB9798), IMP-1; assay type: cell-based; settings: concentration restoring susceptibility to imipenem at 2 μg/mL in the presence of a class A, C, D serine β-lactamase inhibitor closely related to relebactam
In short: (§3)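 P. aeruginosa PAO1-derived IMP-1 strains, efflux+ MB9798 and efflux− MB9799, tested by standard microbroth MIC with imipenem and/or ceftazidime fixed, usually at CLSI breakpoint, plus fixed class A/C β-lactamase inhibitor against AmpC. Inhibitor titrated; concentration restoring susceptibility recorded; MB9798/MB9799 fold difference indicates efflux.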

[8] = tested on: Pseudomonas aeruginosa efflux− (MB9799), IMP-1; assay type: cell-based; settings: concentration restoring susceptibility to imipenem at 2 μg/mL in the presence of a class A, C, D serine β-lactamase inhibitor closely related to relebactam
In short: as §3

[9] = tested on: Pseudomonas aeruginosa MB9798 vs MB9799; settings: ratio MITC95 PA_9798/MITC95 PA_9799
In short: as §3

[10] = fluorescence assay, read-out: VIM-1 IC50

NCCNS(=O)(=O)c1ccc(-c2cccc3cn[nH]c23)c(-c2nn[nH]n2)c1S(N)(=O)=O [Example 9, N^1-(2-aminoethyl)-4-(1H-indazol-7-yl)-3-(2H-tetrazol-5-yl)benzene-1,2-disulfonamide]
Klebsiella pneumoniae expressing VIM-1 (IHMA599644) MITC95 [1]: 1.563 µM
Serratia marcescens expressing IMP-1 (CL5741) MITC95 [2]: 1.563 µM
Escherichia coli expressing NDM-1 (CLB30016) MITC95 [3]: 0.7813 µM
IC50 [4, 10]: 0.133 nM
IC50 [5]: 0.171 nM
IC50 [6]: 0.0844 nM
P. aeruginosa expressing IMP-1, efflux + (MB9798) MITC95 [7]: 0.3906 µM
P. aeruginosa expressing IMP-1, efflux − (MB9799) MITC95 [8]: 0.7813 µM
Efflux ratio [9]: 0.50

Cl.Cn1c(N)nc2c(-c3ccc(S(=O)(=O)NCCN)c(S(N)(=O)=O)c3-c3nn[nH]n3)cccc21 [Example 10, 4-(2-amino-1-methyl-1H-benzo[d]imidazol-4-yl)-N1-(2-aminoethyl)-3-(2H-tetrazol-5-yl)benzene-1,2-disulfonamide hydrochloride]
Klebsiella pneumoniae expressing VIM-1 (IHMA599644) MITC95 [1]: 1.531 µM
Serratia marcescens expressing IMP-1 (CL5741) MITC95 [2]: 0.6406 µM
Escherichia coli expressing NDM-1 (CLB30016) MITC95 [3]: 0.1875 µM
IC50 [4, 10]: 0.177 nM
IC50 [5]: 0.235 nM
IC50 [6]: 0.0901 nM
P. aeruginosa expressing IMP-1, efflux + (MB9798) MITC95 [7]: 0.7656 µM
P. aeruginosa expressing IMP-1, efflux − (MB9799) MITC95 [8]: 0.7656 µM
Efflux ratio [9]: 1.00

NCCNS(=O)(=O)c1ccc(-c2cccc3[nH]c(N)nc23)c(-c2nn[nH]n2)c1S(N)(=O)=O [Example 12, 4-(2-amino-1H-benzo[d]imidazol-4-yl)-N^1-(2-aminoethyl)-3-(2H-tetrazol-5-yl)benzene-1,2-disulfonamide]
Klebsiella pneumoniae expressing VIM-1 (IHMA599644) MITC95 [1]: 0.5703 µM
Serratia marcescens expressing IMP-1 (CL5741) MITC95 [2]: 0.6302 µM
Escherichia coli expressing NDM-1 (CLB30016) MITC95 [3]: 0.25 µM
IC50 ([4]; VIM-1 IC50, fluorescence assay): 0.102 nM
IC50 [5]: 0.316 nM
IC50 [6]: 0.0429 nM
P. aeruginosa expressing IMP-1, efflux + (MB9798) MITC95 [7]: 0.375 µM
P. aeruginosa expressing IMP-1, efflux − (MB9799) MITC95 [8]: 0.5 µM
Efflux ratio [9]: 0.75

NCCNS(=O)(=O)c1ccc(-c2cccc3oc(C(=O)O)nc23)c(-c2nn[nH]n2)c1S(N)(=O)=O [Example 13, 4-(4-(N-(2-aminoethyl)sulfamoyl)-3-sulfamoyl-2-(2H-tetrazol-5-yl)phenyl)benzo[d]oxazole-2-carboxylic acid]
Klebsiella pneumoniae expressing VIM-1 (IHMA599644) MITC95 [1]: 25 µM
Serratia marcescens expressing IMP-1 (CL5741) MITC95 [2]: 12.5 µM
Escherichia coli expressing NDM-1 (CLB30016) MITC95 [3]: 12.5 µM
IC50 [4, 10]: 0.412 nM
IC50 [5]: 2.14 nM
IC50 [6]: 0.0757 nM
P. aeruginosa expressing IMP-1, efflux + (MB9798) MITC95 [7]: 12.5 µM
P. aeruginosa expressing IMP-1, efflux − (MB9799) MITC95 [8]: 6.25 µM
Efflux ratio [9]: 2.00

Nc1nc2c(-c3ccc(S(=O)(=O)NC4CCS(=O)(=O)CC4)c(S(N)(=O)=O)c3-c3nnn[nH]3)cccc2s1 [Example 14, 4-(2-amino-1,3-benzothiazol-4-yl)-N1-(1,1-dioxidotetrahydro-2H-thiopyran-4-yl)-3-(1H-tetrazol-5-yl)benzene-1,2-disulfonamide]
Klebsiella pneumoniae expressing VIM-1 (IHMA599644) MITC95 [1]: 12.5 µM
Serratia marcescens expressing IMP-1 (CL5741) MITC95 [2]: 3.125 µM
Escherichia coli expressing NDM-1 (CLB30016) MITC95 [3]: 12.5 µM
IC50 [4, 10]: 0.176 nM
IC50 [5]: 0.173 nM
IC50 [6]: 0.0255 nM
P. aeruginosa expressing IMP-1, efflux + (MB9798) MITC95 [7]: 3.125 µM
P. aeruginosa expressing IMP-1, efflux − (MB9799) MITC95 [8]: 3.125 µM
Efflux ratio [9]: 1.00

Nc1nc2c(-c3ccc(S(=O)(=O)NCCN4CCNC(=O)C4)c(S(N)(=O)=O)c3-c3nnn[nH]3)cccc2s1 [Example 15, 4-(2-amino-1,3-benzothiazol-4-yl)-N1-[2-(3-oxopiperazin-1-yl)ethyl]-3-(1H-tetrazol-5-yl)benzene-1,2-disulfonamide]
Klebsiella pneumoniae expressing VIM-1 (IHMA599644) MITC95 [1]: 25 µM
Serratia marcescens expressing IMP-1 (CL5741) MITC95 [2]: 12.5 µM
Escherichia coli expressing NDM-1 (CLB30016) MITC95 [3]: 50 µM
IC50 [4, 10]: 0.394 nM
IC50 [5]: 0.451 nM
IC50 [6]: 0.0926 nM
P. aeruginosa expressing IMP-1, efflux + (MB9798) MITC95 [7]: 12.5 µM
P. aeruginosa expressing IMP-1, efflux − (MB9799) MITC95 [8]: 12.5 µM
Efflux ratio [9]: 1.00

CN(C)CC(F)(F)CNS(=O)(=O)c1ccc(-c2cccc3sc(N)nc23)c(-c2nnn[nH]2)c1S(N)(=O)=O [Example 16, 4-(2-amino-1,3-benzothiazol-4-yl)-N1-[3-(dimethylamino)-2,2-difluoropropyl]-3-(1H-tetrazol-5-yl)benzene-1,2-disulfonamide]
Klebsiella pneumoniae expressing VIM-1 (IHMA599644) MITC95 [1]: 25 µM
Serratia marcescens expressing IMP-1 (CL5741) MITC95 [2]: 12.5 µM
Escherichia coli expressing NDM-1 (CLB30016) MITC95 [3]: 25 µM
IC50 [4, 10]: 0.461 nM
IC50 [5]: 0.442 nM
IC50 [6]: 0.0921 nM
P. aeruginosa expressing IMP-1, efflux + (MB9798) MITC95 [7]: 100 µM
P. aeruginosa expressing IMP-1, efflux − (MB9799) MITC95 [8]: 6.25 µM
Efflux ratio [9]: 16.00

CN1CCOC(CNS(=O)(=O)c2ccc(-c3cccc4sc(N)nc34)c(-c3nnn[nH]3)c2S(N)(=O)=O)C1 (stereo not drawn) [Example 17, 4-(2-amino-1,3-benzothiazol-4-yl)-N1-[(4-methylmorpholin-2-yl)methyl]-3-(1H-tetrazol-5-yl)benzene-1,2-disulfonamide]
Klebsiella pneumoniae expressing VIM-1 (IHMA599644) MITC95 [1]: 12.5 µM
Serratia marcescens expressing IMP-1 (CL5741) MITC95 [2]: 6.25 µM
Escherichia coli expressing NDM-1 (CLB30016) MITC95 [3]: 12.5 µM
IC50 [4, 10]: 0.41 nM
IC50 [5]: 0.43 nM
IC50 [6]: 0.0889 nM
P. aeruginosa expressing IMP-1, efflux + (MB9798) MITC95 [7]: 12.5 µM
P. aeruginosa expressing IMP-1, efflux − (MB9799) MITC95 [8]: 6.25 µM
Efflux ratio [9]: 2.00

CN1CCCC(NS(=O)(=O)c2ccc(-c3cccc4sc(N)nc34)c(-c3nnn[nH]3)c2S(N)(=O)=O)C1 (stereo not drawn) [Example 18, 4-(2-amino-1,3-benzothiazol-4-yl)-N1-(1-methylpiperidin-3-yl)-3-(1H-tetrazol-5-yl)benzene-1,2-disulfonamide]
Klebsiella pneumoniae expressing VIM-1 (IHMA599644) MITC95 [1]: 6.25 µM
Serratia marcescens expressing IMP-1 (CL5741) MITC95 [2]: 3.125 µM
Escherichia coli expressing NDM-1 (CLB30016) MITC95 [3]: 6.25 µM
IC50 [4, 10]: 0.271 nM
IC50 [5]: 0.268 nM
IC50 [6]: 0.0488 nM
P. aeruginosa expressing IMP-1, efflux + (MB9798) MITC95 [7]: 3.125 µM
P. aeruginosa expressing IMP-1, efflux − (MB9799) MITC95 [8]: 3.125 µM
Efflux ratio [9]: 1.00

Nc1nc2c(-c3ccc(S(=O)(=O)NCC4CCC(=O)N4)c(S(N)(=O)=O)c3-c3nnn[nH]3)cccc2s1 (stereo not drawn) [Example 19, 4-(2-amino-1,3-benzothiazol-4-yl)-N1-[(5-oxopyrrolidin-2-yl)methyl]-3-(1H-tetrazol-5-yl)benzene-1,2-disulfonamide]
Klebsiella pneumoniae expressing VIM-1 (IHMA599644) MITC95 [1]: 25 µM
Serratia marcescens expressing IMP-1 (CL5741) MITC95 [2]: 6.25 µM
Escherichia coli expressing NDM-1 (CLB30016) MITC95 [3]: 50 µM
IC50 [4, 10]: 0.335 nM
IC50 [5]: 0.486 nM
IC50 [6]: 0.0953 nM
P. aeruginosa expressing IMP-1, efflux + (MB9798) MITC95 [7]: 6.25 µM
P. aeruginosa expressing IMP-1, efflux − (MB9799) MITC95 [8]: 6.25 µM
Efflux ratio [9]: 1.00

Cn1cnc(CNS(=O)(=O)c2ccc(-c3cccc4sc(N)nc34)c(-c3nnn[nH]3)c2S(N)(=O)=O)n1 [Example 20, 4-(2-amino-1,3-benzothiazol-4-yl)-N^1-[(1-methyl-1H-1,2,4-triazol-3-yl)methyl]-3-(1H-tetrazol-5-yl)benzene-1,2-disulfonamide]
Klebsiella pneumoniae expressing VIM-1 (IHMA599644) MITC95 [1]: 25 µM
Serratia marcescens expressing IMP-1 (CL5741) MITC95 [2]: 6.25 µM
Escherichia coli expressing NDM-1 (CLB30016) MITC95 [3]: 25 µM
IC50 [4, 10]: 0.494 nM
IC50 [5]: 0.817 nM
IC50 [6]: 0.0973 nM
P. aeruginosa expressing IMP-1, efflux + (MB9798) MITC95 [7]: 6.25 µM
P. aeruginosa expressing IMP-1, efflux − (MB9799) MITC95 [8]: 6.25 µM
Efflux ratio [9]: 1.00

CN(C)CCNS(=O)(=O)c1ccc(-c2cccc3sc(N)nc23)c(-c2nnn[nH]2)c1S(N)(=O)=O [Example 22, 4-(2-amino-1,3-benzothiazol-4-yl)-N^1-[2-(dimethylamino)ethyl]-3-(1H-tetrazol-5-yl)benzene-1,2-disulfonamide]
Klebsiella pneumoniae expressing VIM-1 (IHMA599644) MITC95 [1]: 3.125 µM
Serratia marcescens expressing IMP-1 (CL5741) MITC95 [2]: 3.125 µM
Escherichia coli expressing NDM-1 (CLB30016) MITC95 [3]: 6.25 µM
IC50 [4, 10]: 0.233 nM
IC50 [5]: 0.413 nM
IC50 [6]: 0.0348 nM
P. aeruginosa expressing IMP-1, efflux + (MB9798) MITC95 [7]: 1.563 µM
P. aeruginosa expressing IMP-1, efflux − (MB9799) MITC95 [8]: 1.563 µM
Efflux ratio [9]: 1.00
